Reference: US12396996B2, “Compounds, pharmaceutical compositions, and methods of their use in reversing cancer chemoresistance” (priority 2019, dated 2025)

What was measured:
[1] = system: 786-0, A549 and HMLE-TWIST cells; experiment: Order of chaetocin and chemotherapy, caspase-3 cleavage; assay type: cell-based, human
Protocol: FIGS. 4D-4E show a set of bar plots and schematics of experiments in which chaetocin (80 nM) was administered for 15 hours either alone, two days before (FIG. 4E) or after a 2 day treatment with a chemotherapeutic drug (FIG. 4D; 300 nM cisplatin or 10 nM Doxorubicin) to 786-0 clear cell renal carcinoma cells, A549 lung cancer cells, and HMLE-TWIST (E-Twist) breast cancer cells. Cell death was assayed with cleaved caspase 3 fluorescent intensity. These experiments were designed to test the prediction of an epigenetic model for chaetocin-mediated reversal of chemotherapy resistance, namely that chaetocin must be added transiently for a short duration (15 hours) 2 days prior to chemotherapy to sensitize the cells to treatment. If the order was reversed (FIG. 4D), there should be no effect. The results of FIGS. 4A-4E indicate that chaetocin primes cancer cells for apoptotic death by chemotherapy through epigenetic reversal of chemotherapy resistance.
In a separate set of experiments, to test the generality of chaetocin in reversing the chemotherapy resistance of mesenchymal, TIC-rich cancers, well-characterized mesenchymal TIC-rich cell lines from ccRCC 786-0 and lung cancer cells (A549) were used along with HMLE-TWIST cells described above. […]

[2] = system: H3K9me3 in HMLE-TWIST cells; experiment: H3K9me3 chromatin immunoprecipitation and deep sequencing; assay type: cell-based, human
Protocol: FIG. 11 is a meta-plot depicting the H3K9me3 peaks in HMLE-TWIST cells treated (right graph) with 0.3 μM of chaetocin for 15 hours versus untreated cells (left graph). […] The decrease in red and yellow color and an increase in blue color is consistent with chaetocin-induced inhibition of Suv39H1 and Suv39H2 activities resulting in a decrease in H3K9me3 throughout the chaetocin-treated HMLE-TWIST cells.
Chaetocin is an inhibitor of Suv39H1 and Suv39H2 enzymes, whose catalytic activities trimethylates lysine 9 of histone H3. […] Consistent with our model, we find that genes involved in cell-cell adhesion (a strong marker for epithelial cells) display a specific loss of H3K9me3 in response to chaetocin treatment (Table 6). We also find that genes involved in neural differentiation also lose H3K9me3. […] Moreover, 60 genes display a simultaneous loss of H3K9me3 and an increase in their expression in chaetocin-treated cells (Table 7).

[3] = system: patient-derived TMZ-resistant glioblastoma (GBM) cell line; experiment: Spheroid cell confluence, co-treatment with TMZ; assay type: cell-based, human
Protocol: FIGS. 13A and 13B depict the response of a patient-derived TMZ-resistant glioblastoma (GBM) cell line to TMZ (Temozolomide). The cells were grown in suspension into spheroids after which they were treated with TMZ (100 uM), chaetocin (50 uM) or both (TMZ 100 uM, chaetocin 50 uM were administered at the same time). Cell confluence, an assay for spheroid size, was measured. The top graph depicts the response of the TMZ-resistant cell line to TMZ (100 uM) alone. Bottom graph depicts the response of the TMZ-resistant cell line to single agent and double agent treatments.
FIG. 14 depicts the response of a patient-derived TMZ-resistant glioblastoma (GBM) cell line to TMZ (Temozolomide). The cells were grown in suspension into spheroids after which they were treated with TMZ (50, 100, 200, 400 μM), chaetocin (50 uM) or both (TMZ at 50, 100, 200, or 400 μM together with chaetocin at 50 uM). […] Cell confluence, an assay for spheroid size, was measured.
A short exposure to chaetocin is sufficient to cause an epigenetic change, reprogramming mesenchymal, TIC-rich cancer cells into an epithelial fate while sensitizing them to chemotherapy. […] Cell confluence, an assay for spheroid size, was measured to determine if cell growth was inhibited (flat curve) or spheroid sizes were reduced (indicator of cell death and spheroid shrinkage). […]

Suv39H1 and Suv39H2 = settings: cited from earlier work
[4] = 0.3 uM for 15 hours, Gene Ontology Biological Process

CN1C(=O)[C@@]23C[C@]4([C@]56C[C@@]78SS[C@](CO)(C(=O)N7[C@H]5Nc5ccccc56)N(C)C8=O)c5ccccc5N[C@@H]4N2C(=O)[C@@]1(CO)SS3 [chaetocin]
sensitization to chemotherapy (caspase-3 cleavage) ([1]; 80 nM for 15 hours, 2 days before cisplatin or doxorubicin): sensitizes them to chemotherapeutic killing | sensitization to chemotherapy (caspase-3 cleavage) ([1]; order reversed: chaetocin after chemotherapy): did not produce similar chemotherapeutic killing of cells | change in H3K9me3 profile ([2]; 0.3 μM for 15 hours versus untreated): specific loss of H3K9me3 over epithelial genes | number of genes with simultaneous loss of H3K9me3 and increase in expression ([2]; 0.3 μM for 15 hours, ChIP-seq with RNA-seq): 60 genes | Fold Enrichment of cell-cell adhesion among genes which lose H3K9me3 [2, 4]: 2.49 | Fold Enrichment of neuron differentiation among genes which lose H3K9me3 [2, 4]: 2.12 | sensitization to TMZ (cell confluence / spheroid size) ([3]; chaetocin 50 uM with TMZ 100 uM added at the same time): sensitization of the TMZ-resistant cell line to TMZ treatment | sensitization to TMZ (cell confluence / spheroid size) ([3]; chaetocin 50 uM with TMZ 50, 100, 200, 400 uM added at the same time): sensitizes the cells to TMZ treatment versus single treatment with TMZ or chaetocin | inhibitor specificity (Suv39H1 and Suv39H2): specific inhibitor of Suv39H1 and Suv39H2 heterochromatin proteins
